pIC50: −log10 of the molar value.
Columns and labels:
saphenous artery rings = assay: Vasorelaxant effect in vitro (phenylephrine-contracted artery rings); parameters: species or system Rabbits; conditions: Oryctolagus cuniculus, concentration reducing phenylephrine-induced contraction by 50%
Protocol: Rabbits are anesthetized and sacrificed by intravenous injection of thiopental sodium (about 50 mg/kg) and exsanguinated. The saphenous artery is removed and divided into rings 3 mm wide. The rings are mounted singly on in each case a pair of triangular hooks open at the end and made of 0.3 mm-thick special wire (Remanium®). Each ring is placed under an initial tension in 5 ml organ baths with Krebs-Henseleit solution which is at 37° C., is gassed with carbogen and has the following composition: NaCl 119 mM; KCl 4.8 mM; CaCl2×2H2O 1 mM; MgSO4×7H2O 1.4 mM; KH2PO4 1.2 mM; NaHCO3 25 mM; glucose 10 mM; bovine serum albumin 0.001%. The force of contraction is detected with Statham UC2 cells, amplified and digitized via A/D converters (DAS-1802 HC, Keithley Instruments, Munich) and recorded in parallel on chart recorders. Contractions are induced by addition of phenylephrine.
After several (generally 4) control cycles, the substance to be investigated is added in each further run in increasing dosage, and the level of the contraction achieved under the influence of the test substance is compared with the level of the contraction reached in the last preceding run. The concentration necessary to reduce the contraction reached in the preceding control by 50% is calculated from this (IC50). The standard application volume is 5 μl. The proportion of DMSO in the bath solution corresponds to 0.1%.

[1] = target: T1, Heme-containing sGC (recombinant soluble guanylate cyclase) (Rattus norvegicus, UniProt P20595); assay: Stimulation of recombinant soluble guanylate cyclase (sGC) in vitro, heme-containing enzyme; format: biochemical
T1 construct: made in house; host or cells: baculovirus/Sf9 insect cells
T1 sequence (P20595 1-619): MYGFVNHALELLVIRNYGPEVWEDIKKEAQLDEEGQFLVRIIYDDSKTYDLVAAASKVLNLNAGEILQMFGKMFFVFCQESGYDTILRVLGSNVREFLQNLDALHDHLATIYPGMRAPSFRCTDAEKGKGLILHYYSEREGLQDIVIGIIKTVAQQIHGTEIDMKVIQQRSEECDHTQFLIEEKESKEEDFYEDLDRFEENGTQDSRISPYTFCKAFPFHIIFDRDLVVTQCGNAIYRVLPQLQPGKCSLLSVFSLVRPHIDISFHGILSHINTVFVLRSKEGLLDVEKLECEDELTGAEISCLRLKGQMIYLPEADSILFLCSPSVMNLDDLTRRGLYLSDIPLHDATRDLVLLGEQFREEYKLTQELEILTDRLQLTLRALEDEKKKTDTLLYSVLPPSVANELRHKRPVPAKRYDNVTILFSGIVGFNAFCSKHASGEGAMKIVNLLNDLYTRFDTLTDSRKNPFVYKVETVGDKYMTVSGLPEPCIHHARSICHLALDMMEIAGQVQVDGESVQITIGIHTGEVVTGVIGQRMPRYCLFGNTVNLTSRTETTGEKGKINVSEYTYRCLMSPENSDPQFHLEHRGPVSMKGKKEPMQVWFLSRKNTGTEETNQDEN
T1 sequence (P19686 1-690 partner): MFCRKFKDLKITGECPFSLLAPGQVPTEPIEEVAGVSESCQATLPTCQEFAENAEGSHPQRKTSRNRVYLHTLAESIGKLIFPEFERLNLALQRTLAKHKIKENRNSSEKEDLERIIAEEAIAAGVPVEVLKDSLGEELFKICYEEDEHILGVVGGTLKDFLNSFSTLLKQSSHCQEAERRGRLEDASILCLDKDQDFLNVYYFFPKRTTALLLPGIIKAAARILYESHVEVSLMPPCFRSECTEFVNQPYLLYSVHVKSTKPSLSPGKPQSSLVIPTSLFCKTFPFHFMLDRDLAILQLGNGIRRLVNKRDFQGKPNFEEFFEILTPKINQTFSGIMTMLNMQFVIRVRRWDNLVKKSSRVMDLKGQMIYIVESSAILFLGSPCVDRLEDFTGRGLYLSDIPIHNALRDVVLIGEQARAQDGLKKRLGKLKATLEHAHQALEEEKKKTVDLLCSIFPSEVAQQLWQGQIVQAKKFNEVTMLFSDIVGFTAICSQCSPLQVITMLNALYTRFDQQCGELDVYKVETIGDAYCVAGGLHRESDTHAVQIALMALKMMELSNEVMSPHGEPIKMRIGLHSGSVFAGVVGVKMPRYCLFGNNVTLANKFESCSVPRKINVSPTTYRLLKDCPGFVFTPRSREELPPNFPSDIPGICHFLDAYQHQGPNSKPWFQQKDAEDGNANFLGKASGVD
Text: Hoenicka, E. M. Becker, H. Apeler, T. Sirichoke, H. Schroeder, R. Gerzer and J.-P. Stasch, “Purified soluble guanylyl cyclase expressed in a baculovirus/Sf9 system: Stimulation by YC-1, nitric oxide, and carbon oxide”, J. Mol. Med. 77 (1999), 14-23. The heme-free guanylate cyclase is obtained by adding Tween 20 to the sample buffer (0.5% in the final concentration).
(§1) The activation of sGC by a test substance is reported as n-fold stimulation of the basal activity.

[2] = target: T2, Heme-free sGC (recombinant soluble guanylate cyclase) (Rattus norvegicus, UniProt P20595); assay: Stimulation of recombinant soluble guanylate cyclase (sGC) in vitro, heme-free enzyme; format: biochemical
T2 construct: made in house; host or cells: baculovirus/Sf9 insect cells
T2 sequence (P20595 1-619): T1 sequence (P20595 1-619)
T2 sequence (P19686 1-690 partner): T1 sequence (P19686 1-690 partner)
Protocol: Investigations on the stimulation of recombinant soluble guanylate cyclase (sGC) by the compounds according to the invention with and without sodium nitroprusside, and with and without the heme-dependent sGC inhibitor 1H-1,2,4-oxadiazolo-(4,3a)-quinoxalin-1-one (ODQ) are carried out by the method described in detail in the following reference: M. Hoenicka, E. M. Becker, H. Apeler, T. Sirichoke, H. Schroeder, R. Gerzer and J.-P. Stasch, “Purified soluble guanylyl cyclase expressed in a baculovirus/Sf9 system: Stimulation by YC-1, nitric oxide, and carbon oxide”, J. Mol. Med. 77 (1999), 14-23. The heme-free guanylate cyclase is obtained by adding Tween 20 to the sample buffer (0.5% in the final concentration).
as §1

[3] = target: T3, recombinant guanylate cyclase reporter cell line (Rattus norvegicus, UniProt P20595); assay: sGC-activating activity in the CHO reporter cell in vitro; format: cell-based
T3 construct: expressed in transfected cells; host or cells: CHO reporter cell line
T3 sequence (P20595 1-619): T1 sequence (P20595 1-619)
T3 sequence (P19686 1-690 partner): T1 sequence (P19686 1-690 partner)
Protocol: The cellular action of the compounds according to the invention is determined at a recombinant guanylate cyclase reporter cell line, as described in F. Wunder et al., Anal. Biochem. 339, 104-112 (2005).

- pIC50 (saphenous artery rings): 6.92
- Stimulation (n-fold) of heme-containing sGC, basal ([1]; 0.1 μM Example 103): 1.2 n-fold
- Stimulation (n-fold) of heme-containing sGC, +0.1 μM DEA/NO ([1]; 0.1 μM Example 103): 6.9 n-fold
- Stimulation (n-fold) of heme-containing sGC, +10 μM ODQ ([1]; 0.1 μM Example 103): 5.8 n-fold
- Stimulation (n-fold) of heme-containing sGC, basal ([1]; 1 μM Example 103): 1.4 n-fold
- Stimulation (n-fold) of heme-containing sGC, +0.1 μM DEA/NO ([1]; 1 μM Example 103): 7.8 n-fold
- Stimulation (n-fold) of heme-containing sGC, +10 μM ODQ ([1]; 1 μM Example 103): 8.5 n-fold
- Stimulation (n-fold) of heme-containing sGC, basal ([1]; 10 μM Example 103): 6.2 n-fold
- Stimulation (n-fold) of heme-containing sGC, +0.1 μM DEA/NO ([1]; 10 μM Example 103): 13.5 n-fold
- Stimulation (n-fold) of heme-containing sGC, +10 μM ODQ ([1]; 10 μM Example 103): 36.8 n-fold
- Stimulation (n-fold) of heme-containing sGC, basal ([1]; 100 μM Example 103): 22.3 n-fold
- Stimulation (n-fold) of heme-containing sGC, +0.1 μM DEA/NO ([1]; 100 μM Example 103): 35.6 n-fold
- Stimulation (n-fold) of heme-containing sGC, +10 μM ODQ ([1]; 100 μM Example 103): 91.8 n-fold
- Effect of combination with the NO donor DEA/NO on sGC stimulation ([1]; combination with DEA/NO): no synergistic effect
- Stimulation (n-fold) of heme-free sGC, basal ([2]; 0.1 μM Example 103): 1.1 n-fold
- Stimulation (n-fold) of heme-free sGC, basal ([2]; 1 μM Example 103): 2.4 n-fold
- Stimulation (n-fold) of heme-free sGC, basal ([2]; 10 μM Example 103): 13.9 n-fold
- Stimulation (n-fold) of heme-free sGC, basal ([2]; 100 μM Example 103): 56.1 n-fold
- MEC (minimum effective concentration), sGC-activating activity in the CHO reporter cell [3]: 10 nM
SMILES: O=C(O)CCc1cccc(NC(=O)C(c2ccc(CN3N=C(c4ccccc4)OCC3=O)cc2)C2CCCC2)c1 (single isomer, unassigned) [Example 103, 3-{3-[(Cyclopentyl{4-[(5-oxo-2-phenyl-5,6-dihydro-4H-1,3,4-oxadiazin-4-yl)methyl]phenyl}acetyl)amino]phenyl}propanoic acid]

From patent publication US8987256B2, “Oxo-heterocyclic substituted carboxylic acid derivatives and the use thereof” (Bayer Intellectual Property GmbH, priority 2008, dated 2015)
